# Measurements published in PMC12422966, “ACLY inhibition promotes tumour immunity and suppresses liver cancer” (Nature, 2025).
# Target: T1, SLC27A2 (FATP2, ACSVL1) (Homo sapiens, UniProt O14975)
# T1 construct: SLC27A2 (NM_003645, human tagged ORF clone) expressed in HEK293 cells
# Assay: LC–MS/MS detection of EVT0185-CoA in HEK293 cells overexpressing SLC27A2, […] EVT0185
# Format: cell-based
compound,measurement,value
"CC(C)(CCCCc1ccc(CCCCC(C)(C)C(=O)O)cc1)C(=O)O [EVT0185, 6-[4-(5-carboxy-5-methyl-hexyl)-phenyl]−2,2-dimethylhexanoic acid]","LC-MS/MS detection of EVT0185-CoA in HEK293 cells overexpressing SLC27A2, 30 μM",Incubation of HEK293 cells with EVT0185 followed by mass spectrometry analysis indicated that only cells expressing SLC27A2 generated the CoA thioester
